Patent US9765034B2, “5-halogenopyrazole biphenylcarboxamides” (BAYER CROPSCIENCE AG, priority 2012, dated 2017)

system: Sphaerotheca fuliginea; experiment: In vivo preventive test on Sphaerotheca fuliginea (powdery mildew on cucurbits); settings: gherkin plants, preventive spray, 500 ppm, grading 12 days after contamination
Procedure: Example: In Vivo Preventive Test on Sphaerotheca fuliginea (Powdery Mildew on Cucurbits) […] Gherkin plants (“Vert petit de Paris” variety), sown in starter cups on a 50/50 peat soil-pozzolana substrate and grown at 24° C., are treated at the Z11 cotyledon stage by spraying with the active ingredient prepared as described above. Plants, used as controls, are treated with the mixture of acetone/tween/DMSO/water not containing the active material. After 24 hours, the plants are contaminated by spraying the cotyledons with an aqueous suspension of Sphaerotheca fuliginea spores (100 000 spores per ml). The spores are collected from infected plants. […] Grading (% of efficacy) is carried out 12 days after the contamination, in comparison with the control plants. Under these conditions, good (at least 70%) or total protection is observed at a dose of 500 ppm with the following compounds: […]

Structure (SMILES)	Eff. % [%]
CON=Cc1ccc(-c2cc(F)ccc2NC(=O)c2c(C(F)F)nn(C)c2Cl)cc1 [Example 30]	100
CCON=Cc1ccc(-c2ccccc2NC(=O)c2c(C(F)F)nn(C)c2Cl)c(F)c1 [Example 37]	100
CCON=Cc1ccc(-c2ccccc2NC(=O)c2c(C(F)F)nn(C)c2Cl)cc1C(F)(F)F [Example 26]	100
CON=Cc1ccc(-c2ccccc2NC(=O)c2c(C(F)F)nn(C)c2Cl)cc1F [Example 33]	100
CON=Cc1c(F)cc(-c2ccccc2NC(=O)c2c(C(F)F)nn(C)c2Cl)cc1F [Example 23]	100
CCON=Cc1c(F)cc(-c2ccccc2NC(=O)c2c(C(F)F)nn(C)c2Cl)cc1F [Example 14]	100
CC(=NOC(C)C)c1ccc(-c2ccccc2NC(=O)c2c(C(F)F)nn(C)c2Cl)cc1 [Example 1]	100
CCON=C(C)c1ccc(-c2ccccc2NC(=O)c2c(C(F)F)nn(C)c2Cl)cc1 [Example 2]	100
CON=Cc1ccc(-c2ccccc2NC(=O)c2c(C(F)F)nn(C)c2Cl)cc1Cl [Example 38]	100
CCON=Cc1ccc(-c2cc(F)ccc2NC(=O)c2c(C(F)F)nn(C)c2Cl)cc1 [Example 19]	100

system: Puccinia recondita; experiment: In vivo preventive test on Puccinia recondita (brown rust on wheat); settings: wheat plants, preventive spray, 500 ppm, grading 12 days after contamination
Procedure: Example: In Vivo Preventive Test on Puccinia recondita (Brown Rust on Wheat) […] Wheat plants (“Scipion” variety), sown in starter cups on a 50/50 peat soil-pozzolana substrate and grown at 22° C., are treated at the 1-leaf stage (10 cm height) by spraying with the active ingredient prepared as described above. Plants, used as controls, are treated with the mixture of acetone/tween/DMSO/water not containing the active material. After 24 hours, the plants are contaminated by spraying the leaves with an aqueous suspension of Puccinia […] spores (100 000 spores per ml). […] Grading (% of efficacy) is carried out 12 days after the contamination, in comparison with the control plants. Under these conditions, good (at least 70%) or total protection is observed at a dose of 500 ppm with the following compounds: […]

Structure (SMILES)	Eff. % [%]
CON=Cc1ccc(-c2cc(F)ccc2NC(=O)c2c(C(F)F)nn(C)c2Cl)cc1 [Example 30]	100
CCON=Cc1ccc(-c2ccccc2NC(=O)c2c(C(F)F)nn(C)c2Cl)c(F)c1 [Example 37]	97
CCON=Cc1ccc(-c2ccccc2NC(=O)c2c(C(F)F)nn(C)c2Cl)cc1C(F)(F)F [Example 26]	97
CON=Cc1ccc(-c2ccccc2NC(=O)c2c(C(F)F)nn(C)c2Cl)cc1F [Example 33]	100
CON=Cc1c(F)cc(-c2ccccc2NC(=O)c2c(C(F)F)nn(C)c2Cl)cc1F [Example 23]	98
CCON=Cc1c(F)cc(-c2ccccc2NC(=O)c2c(C(F)F)nn(C)c2Cl)cc1F [Example 14]	100
CC(=NOC(C)C)c1ccc(-c2ccccc2NC(=O)c2c(C(F)F)nn(C)c2Cl)cc1 [Example 1]	98
CCON=C(C)c1ccc(-c2ccccc2NC(=O)c2c(C(F)F)nn(C)c2Cl)cc1 [Example 2]	98
CON=Cc1ccc(-c2ccccc2NC(=O)c2c(C(F)F)nn(C)c2Cl)cc1Cl [Example 38]	97
CCON=Cc1ccc(-c2cc(F)ccc2NC(=O)c2c(C(F)F)nn(C)c2Cl)cc1 [Example 19]	97

system: Pyrenophora teres; experiment: In vivo preventive test on Pyrenophora teres (net blotch on barley); settings: barley plants, preventive spray, 500 ppm, grading 14 days after contamination
Procedure: Example: In Vivo Preventive Test on Pyrenophora teres (Net Blotch on Barley) […] Barley plants (“Plaisant” variety), sown in starter cups on a 50/50 peat soil-pozzolana substrate and grown at 22° C., are treated at the 1-leaf stage (10 cm height) by spraying with the active ingredient prepared as described above. Plants, used as controls, are treated with the mixture of acetone/tween/DMSO/water not containing the active material. After 24 hours, the plants are contaminated by spraying the leaves with an aqueous suspension of Pyrenophora teres spores (12 000 spores per ml). The spores are collected from a 12-day-old culture. […] Grading (% of efficacy) is carried out 14 days after the contamination, in comparison with the control plants. Under these conditions, good (at least 70%) or total protection is observed at a dose of 500 ppm with the following compounds: […]

Structure (SMILES)	Eff. % [%]
CON=Cc1ccc(-c2cc(F)ccc2NC(=O)c2c(C(F)F)nn(C)c2Cl)cc1 [Example 30]	93
CCON=Cc1ccc(-c2ccccc2NC(=O)c2c(C(F)F)nn(C)c2Cl)c(F)c1 [Example 37]	100
CCON=Cc1ccc(-c2ccccc2NC(=O)c2c(C(F)F)nn(C)c2Cl)cc1C(F)(F)F [Example 26]	90
CON=Cc1ccc(-c2ccccc2NC(=O)c2c(C(F)F)nn(C)c2Cl)cc1F [Example 33]	96
CON=Cc1c(F)cc(-c2ccccc2NC(=O)c2c(C(F)F)nn(C)c2Cl)cc1F [Example 23]	97
CCON=Cc1c(F)cc(-c2ccccc2NC(=O)c2c(C(F)F)nn(C)c2Cl)cc1F [Example 14]	100
CON=Cc1ccc(-c2ccccc2NC(=O)c2c(C(F)F)nn(C)c2Cl)cc1Cl [Example 38]	96
CCON=Cc1ccc(-c2cc(F)ccc2NC(=O)c2c(C(F)F)nn(C)c2Cl)cc1 [Example 19]	80

system: Uromyces appendiculatus; experiment: In vivo preventive test on Uromyces appendiculatus (bean rust); settings: bean plants, preventive spray, 500 ppm, grading 11 days after contamination
Procedure: Example: In Vivo Preventive Test on Uromyces appendiculatus (Bean Rust) […] Bean plants (“Saxa” variety), sown in starter cups on a 50/50 peat soil-pozzolana substrate and grown at 24° C., are treated at the 2-leaf stage (9 cm height) by spraying with the active ingredient prepared as described above. Plants, used as controls, are treated with the mixture of acetone/tween/DMSO/water not containing the active material. After 24 hours, the plants are contaminated by spraying the leaves with an aqueous suspension of Uromyces appendiculatus spores (150 000 spores per ml). […] Grading (% of efficacy) is carried out 11 days after the contamination, in comparison with the control plants. Under these conditions, good (at least 70%) or total protection is observed at a dose of 500 ppm with the following compounds: […]

Structure (SMILES)	Eff. % [%]
CON=Cc1ccc(-c2cc(F)ccc2NC(=O)c2c(C(F)F)nn(C)c2Cl)cc1 [Example 30]	100
CCON=Cc1ccc(-c2ccccc2NC(=O)c2c(C(F)F)nn(C)c2Cl)c(F)c1 [Example 37]	97
CCON=Cc1ccc(-c2ccccc2NC(=O)c2c(C(F)F)nn(C)c2Cl)cc1C(F)(F)F [Example 26]	100
CON=Cc1ccc(-c2ccccc2NC(=O)c2c(C(F)F)nn(C)c2Cl)cc1F [Example 33]	99
CON=Cc1c(F)cc(-c2ccccc2NC(=O)c2c(C(F)F)nn(C)c2Cl)cc1F [Example 23]	100
CCON=Cc1c(F)cc(-c2ccccc2NC(=O)c2c(C(F)F)nn(C)c2Cl)cc1F [Example 14]	100
CC(=NOC(C)C)c1ccc(-c2ccccc2NC(=O)c2c(C(F)F)nn(C)c2Cl)cc1 [Example 1]	100
CCON=C(C)c1ccc(-c2ccccc2NC(=O)c2c(C(F)F)nn(C)c2Cl)cc1 [Example 2]	100
CON=Cc1ccc(-c2ccccc2NC(=O)c2c(C(F)F)nn(C)c2Cl)cc1Cl [Example 38]	100
CCON=Cc1ccc(-c2cc(F)ccc2NC(=O)c2c(C(F)F)nn(C)c2Cl)cc1 [Example 19]	100

system: Alternaria brassicae; experiment: In vivo preventive test on Alternaria brassicae (leaf spot on radish); settings: radish plants, preventive spray, 500 ppm, grading 6 days after contamination
Procedure: Example: In Vivo Preventive Test on Alternaria brassicae (Leaf Spot on Radish) […] Radish plants (“Pernod Clair” variety), sown in starter cups on a 50/50 peat soil-pozzolana substrate and grown at 17° C., are treated at the cotyledon stage by spraying with the active ingredient prepared as described above. Plants, used as controls, are treated with the mixture of acetone/tween/DMSO/water not containing the active material. After 24 hours, the plants are contaminated by spraying the cotyledons with an aqueous suspension of Alternaria brassicae spores (50 000 spores per ml). The spores are collected from a 15-day-old culture. […] Grading (% of efficacy) is carried out 6 days after the contamination, in comparison with the control plants. Under these conditions, good (at least 70%) or total protection is observed at a dose of 500 ppm with the following compounds: […]

Structure (SMILES)	Eff. % [%]
CON=Cc1ccc(-c2cc(F)ccc2NC(=O)c2c(C(F)F)nn(C)c2Cl)cc1 [Example 30]	97
CCON=Cc1ccc(-c2ccccc2NC(=O)c2c(C(F)F)nn(C)c2Cl)c(F)c1 [Example 37]	88
CON=Cc1ccc(-c2ccccc2NC(=O)c2c(C(F)F)nn(C)c2Cl)cc1F [Example 33]	88
CON=Cc1c(F)cc(-c2ccccc2NC(=O)c2c(C(F)F)nn(C)c2Cl)cc1F [Example 23]	97
CCON=Cc1c(F)cc(-c2ccccc2NC(=O)c2c(C(F)F)nn(C)c2Cl)cc1F [Example 14]	100
CON=Cc1ccc(-c2ccccc2NC(=O)c2c(C(F)F)nn(C)c2Cl)cc1Cl [Example 38]	94
CCON=Cc1ccc(-c2cc(F)ccc2NC(=O)c2c(C(F)F)nn(C)c2Cl)cc1 [Example 19]	88

system: not listed separately; experiment: logP by HPLC on reversed phase columns (EEC directive 79/831 Annex V.A8); settings: method [a]: LC-MS at pH 2.7, 0.1% formic acid in water / acetonitrile gradient 10% to 95%

Structure (SMILES)	logP
CON=Cc1ccc(-c2cc(F)ccc2NC(=O)c2c(C(F)F)nn(C)c2Cl)cc1 [Example 30]	3.66[a]
CCON=Cc1ccc(-c2ccccc2NC(=O)c2c(C(F)F)nn(C)c2Cl)c(F)c1 [Example 37]	3.65[a]
CCON=Cc1ccc(-c2ccccc2NC(=O)c2c(C(F)F)nn(C)c2Cl)cc1C(F)(F)F [Example 26]	4.65[a]
CON=Cc1ccc(-c2ccccc2NC(=O)c2c(C(F)F)nn(C)c2Cl)cc1F [Example 33]	3.75[a]
CON=Cc1c(F)cc(-c2ccccc2NC(=O)c2c(C(F)F)nn(C)c2Cl)cc1F [Example 23]	3.61[a]
CCON=Cc1c(F)cc(-c2ccccc2NC(=O)c2c(C(F)F)nn(C)c2Cl)cc1F [Example 14]	4.04[a]
CC(=NOC(C)C)c1ccc(-c2ccccc2NC(=O)c2c(C(F)F)nn(C)c2Cl)cc1 [Example 1]	5.03[a]
CCON=C(C)c1ccc(-c2ccccc2NC(=O)c2c(C(F)F)nn(C)c2Cl)cc1 [Example 2]	4.58[a]
CON=Cc1ccc(-c2ccccc2NC(=O)c2c(C(F)F)nn(C)c2Cl)cc1Cl [Example 38]	4.19[a]
CCON=Cc1ccc(-c2cc(F)ccc2NC(=O)c2c(C(F)F)nn(C)c2Cl)cc1 [Example 19]	4.11[a]

system: Botrytis cinerea; experiment: In vivo preventive test on Botrytis cinerea (grey mould); settings: gherkin plants, preventive spray, 500 ppm, grading 4 to 5 days after contamination
Procedure: Example: In Vivo Preventive Test on Botrytis cinerea (Grey Mould) […] Gherkin plants (“Vert petit de Paris” variety), sown in starter cups on a 50/50 peat soil-pozzolana substrate and grown at 24° C., are treated at the Z11 cotyledon stage by spraying with the active ingredient prepared as described above. Plants, used as controls, are treated with the mixture of acetone/tween/DMSO/water not containing the active material. After 24 hours, the plants are contaminated by spraying the cotyledons with an aqueous suspension of cryopreserved Botrytis cinerea spores (50 000 spores per ml). The spores are suspended in a nutrient solution composed of 10 g/L of PDB, 50 g/L of D-Fructose, 2 g/L of NH4NO3 and 1 g/L of KH2PO4. […] Grading (% of efficacy) is carried out 4 to 5 days after the contamination, in comparison with the control plants. Under these conditions, good (at least 70%) or total protection is observed at a dose of 500 ppm with the following compounds: […]

Structure (SMILES)	Eff. % [%]
CCON=Cc1ccc(-c2ccccc2NC(=O)c2c(C(F)F)nn(C)c2Cl)c(F)c1 [Example 37]	100
CON=Cc1ccc(-c2ccccc2NC(=O)c2c(C(F)F)nn(C)c2Cl)cc1F [Example 33]	95
CCON=Cc1c(F)cc(-c2ccccc2NC(=O)c2c(C(F)F)nn(C)c2Cl)cc1F [Example 14]	70
CCON=Cc1ccc(-c2cc(F)ccc2NC(=O)c2c(C(F)F)nn(C)c2Cl)cc1 [Example 19]	70

system: Septoria tritici; experiment: In vivo preventive test on Septoria tritici (leaf spot on wheat); settings: wheat plants, preventive spray, 500 ppm, grading 24 days after contamination
Procedure: Example: In Vivo Preventive Test on Septoria tritici (Leaf Spot on Wheat) […] Wheat plants (“Scipion” variety), sown in starter cups on a 50/50 peat soil-pozzolana substrate and grown at 22° C., are treated at the 1-leaf stage (10 cm height) by spraying with the active ingredient prepared as described above. Plants, used as controls, are treated with the mixture of acetone/tween/DMSO/water not containing the active material. After 24 hours, the plants are contaminated by spraying the leaves with an aqueous suspension of cryopreserved Septoria tritici spores (500 000 spores per ml). […] Grading (% of efficacy) is carried out 24 days after the contamination, in comparison with the control plants. Under these conditions, good (at least 70%) or total protection is observed at a dose of 500 ppm with the following compounds: […]

Structure (SMILES)	Eff. % [%]
CON=Cc1ccc(-c2cc(F)ccc2NC(=O)c2c(C(F)F)nn(C)c2Cl)cc1 [Example 30]	97
CON=Cc1c(F)cc(-c2ccccc2NC(=O)c2c(C(F)F)nn(C)c2Cl)cc1F [Example 23]	97
CC(=NOC(C)C)c1ccc(-c2ccccc2NC(=O)c2c(C(F)F)nn(C)c2Cl)cc1 [Example 1]	75
